Data from patent US9376436B2, “2-(pyridin-2yl)-1, 7-diaza-spiro [4.4] nonane-6-one compound as voltage-gated sodium channels modulators” (CONVERGENCE PHARMACEUTICALS LIMITED, priority 2011, dated 2016).
Where a name gives a salt, the structure may show the parent alone. Read-outs that look alike come from different tables or passages of the source.

Target: T1, hNaV1.7 (Homo sapiens, UniProt Q15858)
T1 construct: expressed in transfected cells; host or cells: HEK293
Test: QPatch NaV1.7 assay (whole-cell patch clamp, QPatch16x)
Type: cell-based
Conditions: HEK293-hNaV1.7 cells
Experimental: The compounds of the invention were tested in a QPatch NaV1.7 assay.
HEK293-hNaV1.7 cells were grown in DMEM-F12+10% FBS culture media at 37° C. At a confluency of 50-70% cells were dissociated from culture flasks & triturated to ensure unicellular cell suspension; cell density was measured & adjusted to 2-3×10^6 cells/ml. Recordings were obtained using QPatch16x. The external solution was (in mM): NaCl, 128; KCl, 5; MgCl2, 2; CaCl2, 2; Glucose, 30; HEPES, 15; pH 7.3, 305-315 mOsm. Following seal formation and whole-cell access using internal solution (containing in mM: CsF, 135; EGTA/CsOH, 1/5; HEPES 10; NaCl, 10; pH 7.3, 310-320 mOsM), voltage pulse protocols were applied. Initially a steady state inactivation voltage protocol was used to determine the half-maximal voltage for steady state inactivation (V1/2 SSI). Two holding voltages were used to determine test drug inhibition: −90 mV, where most of the channels are in a closed state; and V1/2 SSI, where half of the channels are inactivated. Currents were elicited […] by stepping to a membrane potential of 0 mV for 20 ms. Four-point cumulative concentration responses were derived by determining the peak current amplitude at each concentration of test drug over 120 second application. Curves were fitted with the Hill equation yielding pIC50 values at −90 mV and V1/2 SSI holding potentials.

[1] = holding voltage V1/2 SSI (half of channels inactivated), read-out: QP Nav1.7 SSI vhalf pIC50 (converted)
[2] = holding voltage −90 mV (most channels closed), read-out: QP Nav1.7 −90 mV pIC50 (converted)

T1 sequence (Q15858 whole entry): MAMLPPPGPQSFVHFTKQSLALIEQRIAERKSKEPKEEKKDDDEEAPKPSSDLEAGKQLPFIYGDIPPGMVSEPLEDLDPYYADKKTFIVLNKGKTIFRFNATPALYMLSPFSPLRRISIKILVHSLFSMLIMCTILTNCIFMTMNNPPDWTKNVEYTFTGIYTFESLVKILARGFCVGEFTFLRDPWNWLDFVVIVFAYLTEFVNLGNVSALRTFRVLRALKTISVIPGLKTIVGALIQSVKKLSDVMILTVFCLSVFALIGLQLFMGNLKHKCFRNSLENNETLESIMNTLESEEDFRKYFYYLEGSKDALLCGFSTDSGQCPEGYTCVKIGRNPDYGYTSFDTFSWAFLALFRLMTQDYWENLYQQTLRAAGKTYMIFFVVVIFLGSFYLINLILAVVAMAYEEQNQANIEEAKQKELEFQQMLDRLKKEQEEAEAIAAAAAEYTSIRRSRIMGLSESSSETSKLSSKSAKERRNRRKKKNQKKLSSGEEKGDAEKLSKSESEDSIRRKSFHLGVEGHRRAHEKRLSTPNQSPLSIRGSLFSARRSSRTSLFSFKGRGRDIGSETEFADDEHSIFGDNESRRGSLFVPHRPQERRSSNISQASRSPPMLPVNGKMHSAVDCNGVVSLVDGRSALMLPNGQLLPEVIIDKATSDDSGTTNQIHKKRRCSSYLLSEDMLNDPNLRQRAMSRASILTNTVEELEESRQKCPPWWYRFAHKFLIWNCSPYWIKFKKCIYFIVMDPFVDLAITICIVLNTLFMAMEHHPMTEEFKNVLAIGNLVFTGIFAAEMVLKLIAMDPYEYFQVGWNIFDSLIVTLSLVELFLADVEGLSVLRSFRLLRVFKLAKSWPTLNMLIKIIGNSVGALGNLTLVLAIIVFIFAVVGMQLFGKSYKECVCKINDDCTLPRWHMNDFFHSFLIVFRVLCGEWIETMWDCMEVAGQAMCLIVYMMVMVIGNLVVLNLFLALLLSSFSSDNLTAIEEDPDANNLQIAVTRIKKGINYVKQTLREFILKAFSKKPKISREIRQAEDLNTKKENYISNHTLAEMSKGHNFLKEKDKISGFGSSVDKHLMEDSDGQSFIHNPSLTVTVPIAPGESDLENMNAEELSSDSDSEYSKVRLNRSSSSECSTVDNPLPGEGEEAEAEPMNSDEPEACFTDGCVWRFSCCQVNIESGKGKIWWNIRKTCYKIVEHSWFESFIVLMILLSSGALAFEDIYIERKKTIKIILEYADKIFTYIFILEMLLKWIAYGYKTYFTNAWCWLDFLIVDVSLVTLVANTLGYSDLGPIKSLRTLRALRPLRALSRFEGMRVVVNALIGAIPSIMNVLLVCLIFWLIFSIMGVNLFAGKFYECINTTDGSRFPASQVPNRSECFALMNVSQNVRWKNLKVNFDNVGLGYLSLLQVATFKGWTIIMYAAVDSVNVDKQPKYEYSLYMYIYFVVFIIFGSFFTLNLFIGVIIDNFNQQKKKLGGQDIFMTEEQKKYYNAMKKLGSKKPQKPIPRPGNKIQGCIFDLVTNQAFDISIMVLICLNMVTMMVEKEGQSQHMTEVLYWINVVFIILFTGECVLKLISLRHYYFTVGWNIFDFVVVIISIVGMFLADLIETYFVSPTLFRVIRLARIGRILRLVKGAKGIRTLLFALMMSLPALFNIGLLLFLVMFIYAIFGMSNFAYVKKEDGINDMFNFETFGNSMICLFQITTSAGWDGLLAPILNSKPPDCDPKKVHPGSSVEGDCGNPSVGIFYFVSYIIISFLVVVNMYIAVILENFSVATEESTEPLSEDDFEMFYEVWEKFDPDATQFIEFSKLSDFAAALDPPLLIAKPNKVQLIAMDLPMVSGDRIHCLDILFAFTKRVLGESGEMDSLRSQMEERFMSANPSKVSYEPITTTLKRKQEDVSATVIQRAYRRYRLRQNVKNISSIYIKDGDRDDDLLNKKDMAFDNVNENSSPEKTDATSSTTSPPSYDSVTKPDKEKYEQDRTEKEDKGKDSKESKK

| IC50 [1] [µM] | IC50 [2] [µM] | SMILES |
| --- | --- | --- |
| 12.6 | 31.6 | CC1(C)C[C@]2(CC[C@@H](c3cc(-c4ccc(C(F)(F)F)cc4)ccn3)N2)C(=O)N1 [Example 47, (2S,5R)-8,8-Dimethyl-2-[4-[4-(trifluoromethyl)phenyl]-2-pyridyl]-1,7-diazaspiro[4.4]nonan-6-one hydrochloride] |
| 2 | 25.1 | O=C1NCCC[C@@]12CC[C@@H](c1cc(-c3ccc(C(F)(F)F)cc3)ccn1)N2 [Example 48, (2S,5R)-2-[4-(4-Trifluoromethyl-phenyl)-pyridin-2-yl]-1,7-diaza-spiro[4.5]decan-6-one hydrochloride] |
| 3.98 | 50.1 | O=C1NCCC[C@@]12CC[C@H](c1cc(-c3ccc(C(F)(F)F)cc3)ccn1)N2 [Example 49, (2R,5R)-2-[4-(4-Trifluoromethyl-phenyl)-pyridin-2-yl]-1,7-diaza-spiro[4.5]decan-6-one hydrochloride] |
| 0.251 | 2.51 | O=C1NCCC[C@]12CC[C@H](c1cc(-c3ccc(C(F)(F)F)cc3)ccn1)N2 [Example 50, (2R,5S)-2-[4-(4-Trifluoromethyl-phenyl)-pyridin-2-yl]-1,7-diaza-spiro[4.5]decan-6-one hydrochloride] |
| 5.01 | 25.1 | O=C1NCCC[C@]12CC[C@@H](c1cc(-c3ccc(C(F)(F)F)cc3)ccn1)N2 [Example 51, (25,5S)-2-[4-(4-Trifluoromethyl-phenyl)-pyridin-2-yl]-1,7-diaza-spiro[4.5]decan-6-one hydrochloride] |
| 6.31 | 25.1 | CN1CC[C@@]2(CC[C@H](c3cc(-c4ccc(C(F)(F)F)cc4)ccn3)N2)C1=O [Example 52, (2R,5S)-7-Methyl-2-[4-(4-trifluoromethyl-phenyl)-pyridin-2-yl]-1,7-diaza-spiro[4.4]nonan-6-one hydrochloride] |
| 39.8 | 100 | CN1CC[C@@]2(CC[C@@H](c3cc(-c4ccc(C(F)(F)F)cc4)ccn3)N2)C1=O [Example 53, (2S,5S)-7-Methyl-2-[4-(4-trifluoromethyl-phenyl)-pyridin-2-yl]-1,7-diaza-spiro[4.4]nonan-6-one hydrochloride] |
| 39.8 | 63.1 | CN1CC[C@]2(CC[C@@H](c3cc(-c4ccc(C(F)(F)F)cc4)ccn3)N2)C1=O [Example 54, (2S,5R)-7-Methyl-2-[4-(4-trifluoromethyl-phenyl)-pyridin-2-yl]-1,7-diaza-spiro[4.4]nonan-6-one hydrochloride] |
| 20 | 100 | CN1CC[C@]2(CC[C@H](c3cc(-c4ccc(C(F)(F)F)cc4)ccn3)N2)C1=O [Example 55, (2R,5R)-7-Methyl-2-[4-(4-trifluoromethyl-phenyl)-pyridin-2-yl]-1,7-diaza-spiro[4.4]nonan-6-one hydrochloride] |
| 10 | 79.4 | Cc1cc(-c2ccc(F)cc2)cc([C@@H]2CC[C@]3(CCN(C)C3=O)N2)n1 [Example 56, (2S,5R)-2-[4-(4-Fluorophenyl)-6-methyl-2-pyridyl]-7-methyl-1,7-diazaspiro[4.4]nonan-6-one hydrochloride] |
| 3.98 | 79.4 | Cc1cc(-c2ccc(F)cc2)cc([C@H]2CC[C@@]3(CCN(C)C3=O)N2)n1 [Example 57, (2R,5S)-2-[4-(4-Fluorophenyl)-6-methyl-2-pyridyl]-7-methyl-1,7-diazaspiro[4.4]nonan-6-one hydrochloride] |
| 1.26 | 63.1 | CN1CC[C@@]2(CC[C@H](c3cc(-c4ccc(C(F)(F)F)cc4)c(F)cn3)N2)C1=O [Example 58, (2R,5S)-2-[5-Fluoro-4-[4-(trifluoromethyl)phenyl]-2-pyridyl]-7-methyl-1,7-diazaspiro[4.4]nonan-6-one hydrochloride] |
| 3.16 | 100 | CN1CC[C@@]2(CC[C@@H](c3cc(-c4ccc(C(F)(F)F)cc4)c(F)cn3)N2)C1=O [Example 59, (2S,5S)-2-[5-Fluoro-4-[4-(trifluoromethyl)phenyl]-2-pyridyl]-7-methyl-1,7-diazaspiro[4.4]nonan-6-one hydrochloride] |
| 3.98 | 79.4 | CN1CC[C@]2(CC[C@@H](c3cc(-c4ccc(C(F)(F)F)cc4)c(F)cn3)N2)C1=O [Example 60, (2S,5R)-2-[5-Fluoro-4-[4-(trifluoromethyl)phenyl]-2-pyridyl]-7-methyl-1,7-diazaspiro[4.4]nonan-6-one hydrochloride] |
| 6.31 | 100 | CN1CC[C@]2(CC[C@H](c3cc(-c4ccc(C(F)(F)F)cc4)c(F)cn3)N2)C1=O [Example 61, (2R,5R)-2-[5-Fluoro-4-[4-(trifluoromethyl)phenyl]-2-pyridyl]-7-methyl-1,7-diazaspiro[4.4]nonan-6-one hydrochloride] |
| 10 | 126 | CN1CC[C@@]2(CC[C@H](c3cc(-c4ccc(F)cc4)ccn3)N2)C1=O [Example 66, (2R,5S)-2-[4-(4-Fluorophenyl)-2-pyridyl]-7-methyl-1,7-diazaspiro[4.4]nonan-6-one hydrochloride] |
| 3.98 | 31.6 | CN1CCC[C@@]2(CC[C@H](c3cc(-c4ccc(C(F)(F)F)cc4)ccn3)N2)C1=O [Example 67, (2R,5R)-7-Methyl-2-[4-(4-trifluoromethyl-phenyl)-pyridin-2-yl]-1,7-diaza-spiro[4.5]decan-6-one hydrochloride] |
| 5.01 | 25.1 | CN1CCC[C@@]2(CC[C@@H](c3cc(-c4ccc(C(F)(F)F)cc4)ccn3)N2)C1=O [Example 68, (2S,5R)-7-Methyl-2-[4-(4-trifluoromethyl-phenyl)-pyridin-2-yl]-1,7-diaza-spiro[4.5]decan-6-one hydrochloride] |
| 7.94 | 31.6 | CN1CCC[C@]2(CC[C@@H](c3cc(-c4ccc(C(F)(F)F)cc4)ccn3)N2)C1=O [Example 69, (2S,5S)-7-Methyl-2-[4-(4-trifluoromethyl-phenyl)-pyridin-2-yl]-1,7-diaza-spiro[4.5]decan-6-one hydrochloride] |
| 1 | 12.6 | CN1CCC[C@]2(CC[C@H](c3cc(-c4ccc(C(F)(F)F)cc4)ccn3)N2)C1=O [Example 70, (2R,5S)-7-Methyl-2-[4-(4-trifluoromethyl-phenyl)-pyridin-2-yl]-1,7-diaza-spiro[4.5]decan-6-one hydrochloride] |
| 20 | 126 | CN1CCC[C@@]2(CC[C@H](c3cc(-c4ccc(F)cc4)ccn3)N2)C1=O [Example 71, (2R,5R)-2-[4-(4-Fluoro-phenyl)-pyridin-2-yl]-7-methyl-1,7-diaza-spiro[4.5]decan-6-one hydrochloride] |
| 20 | 158 | CN1CCC[C@@]2(CC[C@@H](c3cc(-c4ccc(F)cc4)ccn3)N2)C1=O [Example 72, (2S,5R)-2-[4-(4-Fluoro-phenyl)-pyridin-2-yl]-7-methyl-1,7-diaza-spiro[4.5]decan-6-one hydrochloride] |
| 20 | 200 | CN1CCC[C@]2(CC[C@@H](c3cc(-c4ccc(F)cc4)ccn3)N2)C1=O [Example 73, (2S,5S)-2-[4-(4-Fluoro-phenyl)-pyridin-2-yl]-7-methyl-1,7-diaza-spiro[4.5]decan-6-one hydrochloride] |
| 7.94 | 63.1 | CN1CCC[C@]2(CC[C@H](c3cc(-c4ccc(F)cc4)ccn3)N2)C1=O [Example 74, (2R,5S)-2-[4-(4-Fluoro-phenyl)-pyridin-2-yl]-7-methyl-1,7-diaza-spiro[4.5]decan-6-one hydrochloride] |

| SMILES | IC50 [1] [µM] | IC50 [2] [µM] |
| --- | --- | --- |
| CN1CC[C@@]2(CC[C@H](c3cc(-c4ccc(C(F)(F)F)cc4)c(OC(C)(C)C)cn3)N2)C1=O [Example 62, (2R,5S)-2-[5-tert-Butoxy-4-[4-(trifluoromethyl)-phenyl]-2-pyridyl]-7-methyl-1,7-diazaspiro[4.4]nonan-6-one hydrochloride] | 2 | 79.4 |
| CN1CC[C@@]2(CC[C@@H](c3cc(-c4ccc(C(F)(F)F)cc4)c(OC(C)(C)C)cn3)N2)C1=O [Example 63, (2S,5S)-2-[5-tert-Butoxy-4-[4-(trifluoromethyl)-phenyl]-2-pyridyl]-7-methyl-1,7-diazaspiro[4.4]nonan-6-one hydrochloride] | 10 | 79.4 |
| CN1CC[C@]2(CC[C@@H](c3cc(-c4ccc(C(F)(F)F)cc4)c(OC(C)(C)C)cn3)N2)C1=O [Example 64, (2S,5R)-2-[5-tert-Butoxy-4-[4-(trifluoromethyl)-phenyl]-2-pyridyl]-7-methyl-1,7-diazaspiro[4.4]nonan-6-one hydrochloride] | 3.16 | 50.1 |
| CN1CC[C@]2(CC[C@H](c3cc(-c4ccc(C(F)(F)F)cc4)c(OC(C)(C)C)cn3)N2)C1=O [Example 65, (2R,5R)-2-[5-tert-Butoxy-4-[4-(trifluoromethyl)-phenyl]-2-pyridyl]-7-methyl-1,7-diazaspiro[4.4]nonan-6-one hydrochloride] | 1.58 | 31.6 |
